According to ChEMBL document CHEMBL1150257, “Synthesis and cytotoxicity of a salicylihalamide A analogue” (2008):

What was measured:
Assay type in all cases: functional
[1] = system: SR; assay: Cytotoxicity against human SR cells
[2] = system: SK-MEL-5; assay: Cytotoxicity against human SK-MEL-5 cells
[3] = system: MCF7; assay: Cytotoxicity against human MCF7 cells
[4] = system: MDA-MB-435; assay: Cytotoxicity against human MDA-MB-435 cells

Row | SMILES | GI50 [1] [µM] | GI50 [2] [µM] | GI50 [3] [µM] | GI50 [4] [µM]
1 | CC/C=C\C=C/C(=O)N/C=C/CC1Cc2cccc(O)c2C(=O)O1 (racemic) | 2 | 27 | 49 | 11
2 | CC/C=C\C=C/C(=O)N/C=C/C[C@H]1C[C@@H](O)[C@@H](C)C/C=C/Cc2cccc(O)c2C(=O)O1 [SALICYLIHALAMIDE A] | – | 0.007 | – | –
